# In patent publication US7491794B2, “Macrocyclic compounds as inhibitors of viral replication” (Intermune, Inc., priority 2003, dated 2009):
# pIC50: −log10 of the molar value.
# Target: T1, NS3-NS4 protease (Hepatitis C virus genotype 1a, UniProt P27958)
# T1 construct: Recombinant E. coli or Baculovirus full-length NS3 was diluted to 3.33 μM with assay buffer; made in house; host or cells: E. coli or baculovirus (BV) system
# Assay: NS3-NS4 protease assay / NS3 inhibition assay, Section D
# Assay type: biochemical
# Description: NS3-NS4 Protease Assay NS3 complex formation with NS4A-2.
# Recombinant E. coli or Baculovirus full-length NS3 was diluted to 3.33 μM with assay buffer and transferred material to an eppendorf tube and place in water bath in 4° C. refrigerator. The appropriate amount of NS4A-2 to 8.3 mM in assay buffer was added to equal the volume of NS3 in step 2.1.1 (conversion factor −3.8 mg/272 μL assay buffer). The material was transferred to an eppendorf tube and place in water bath in 4° C. refrigerator.
# After equilibration to 4° C., equal volumes of NS3 and NS4A-2 solutions were combined in an eppendorf tube, mix gently with a manual pipettor, and incubate mixture for 15 minutes in the 4° C. water bath. Final concentrations in the mixture are 1.67 μM NS3, 4.15 mM NS4A-2 (2485-fold molar excess NS4A-2).
# After 15 minutes at 4° C., the NS3/NS4A-2 eppendorf tube was removed and placed in a room temperature water bath for 10 minutes. NS3/NS4A-2 was alliquoted at appropriate volumes and store at −80° C. (E. coli NS3 run at 2 nM in assay, aliquot at 25 μL. BV NS3 run at 3 nM in assay, aliquot at 30 μL).
# Sample compounds were dissolved to 10 mM in DMSO then diluted to 2.5 mM (1:4) in DMSO.
# The E. coli. NS3/NS4A-2 was diluted to 4 nM NS3 (1:417.5 of 1.67 μM stock−18 μL 1.67 μM stock+7497 μL assay buffer).
# The BV NS3/NS4A-2 was diluted to 6 nM NS3 (1:278.3 of 1.67 μM stock−24 μL 1.67 μM stock+6655 μL assay buffer).
# Using the manual multichannel pipettor, careful not to introduce bubbles into the plate, add 50 μL assay buffer to wells A01-H01 of a black Costar 96-well polypropylene storage plate.
# Using the manual multichannel pipettor, careful not to introduce bubbles into the plate, add 50 μL of diluted NS3/NS4A-2 from step 2.2.6 to wells A02-H12 of plate in step 2.2.7.
# Using the manual multichannel pipettor, careful not to introduce bubbles into the plate, transfer 25 μL of the wells in drug dilution plate in step 2.2.5 to corresponding wells in assay plate in step 2.2.8. Change tips on multichannel pipettor for each row of compounds transferred.
# Using the manual multichannel pipettor, careful not to introduce bubbles into the plate, mix the wells from the assay plate in step 2.2.9 by aspirating and dispensing 35 μL of the 75 μL in each well five times. Change tips on multichannel pipettor for each row of wells mixed.
# Cover plate with a polystyrene plate lid and pre-incubate the plate from step 2.2.10 containing NS3 protease and sample compounds 10 minutes at room temperature.
# While plate from step 2.2.11 is pre-incubating, dilute RETS1 substrate in a 15 mL polypropylene centrifuge tube.
# Dilute RETS1 substrate to 8 μM (1:80.75 of 646 μM stock−65 μL 646 μM stock+5184 μL assay buffer).
# After the plate in step is done pre-incubating, and using the manual multichannel, add 25 μL of substrate to all wells on the plate. Quickly mix the plate as in step 2.2.10, mixing 65 μL of the 100 μL in the wells.
# Read the plate in kinetic mode on the Molecular Devices SpectraMax Gemini XS plate reader. Reader settings: Read time: 30 minutes, Interval: 36 seconds, Reads: 51, Excitation k: 335 nm, Emission k: 495 nm, cutoff: 475 nm, Automix: off, Calibrate: once, PMT: high, Reads/well: 6, Vmax pts: 21 or 28/51 depending on length of linearity of reaction.
# IC50s are determined using a four parameter curve fit equation, and converted to Ki's using the following Km's:
# where Ki=IC50/(1+[S]/Km))
# T1 sequence (P27958 1027-1657): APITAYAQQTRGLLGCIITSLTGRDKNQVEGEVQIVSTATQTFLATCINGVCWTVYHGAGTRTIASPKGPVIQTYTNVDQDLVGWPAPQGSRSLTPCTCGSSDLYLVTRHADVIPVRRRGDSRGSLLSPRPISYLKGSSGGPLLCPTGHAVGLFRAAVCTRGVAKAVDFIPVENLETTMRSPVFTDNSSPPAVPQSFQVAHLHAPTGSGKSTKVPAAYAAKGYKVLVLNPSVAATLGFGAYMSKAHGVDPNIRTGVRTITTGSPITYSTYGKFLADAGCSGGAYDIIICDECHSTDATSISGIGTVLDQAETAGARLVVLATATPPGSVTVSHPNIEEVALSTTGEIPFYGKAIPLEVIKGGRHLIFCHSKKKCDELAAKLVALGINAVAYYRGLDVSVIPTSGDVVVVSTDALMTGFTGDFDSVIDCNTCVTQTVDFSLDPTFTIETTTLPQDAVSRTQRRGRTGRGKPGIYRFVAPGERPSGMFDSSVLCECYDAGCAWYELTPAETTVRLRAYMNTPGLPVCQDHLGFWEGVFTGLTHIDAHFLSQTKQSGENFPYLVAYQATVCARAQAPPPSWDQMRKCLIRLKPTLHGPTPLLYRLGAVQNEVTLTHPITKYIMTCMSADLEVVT
row,SMILES,pIC50
1,CC(C)(C)OC(=O)N[C@H]1CCCCC/C=C\[C@@H]2C[C@@]2(C(=O)NS(=O)(=O)C2CC2)NC(=O)[C@@H]2C[C@@H](NC(=O)c3ccc(-c4ccccc4)cc3)CN2C1=O [Example 19],> 7.00
2,CC(C)(C)OC(=O)N[C@H]1CCCCC/C=C\[C@@H]2C[C@@]2(C(=O)NS(=O)(=O)C2CC2)NC(=O)[C@@H]2C[C@@H](NC(=O)c3ccc(-n4ccnc4)cc3)CN2C1=O [Example 20],> 7.00
3,CC(C)(C)OC(=O)N[C@H]1CCCCC/C=C\[C@@H]2C[C@@]2(C(=O)NS(=O)(=O)C2CC2)NC(=O)[C@@H]2C[C@@H](NC(=O)c3cnn(-c4ccccc4)c3C(F)(F)F)CN2C1=O [Example 21],> 7.00
4,CC(C)(C)OC(=O)N[C@H]1CCCCC/C=C\[C@@H]2C[C@@]2(C(=O)NS(=O)(=O)C2CC2)NC(=O)[C@@H]2C[C@@H](NC(=O)c3ccc(-c4ccc(Cl)cc4)o3)CN2C1=O [Example 22],> 7.00
5,CC(C)(C)OC(=O)N[C@H]1CCCCC/C=C\[C@@H]2C[C@@]2(C(=O)NS(=O)(=O)C2CC2)NC(=O)[C@@H]2C[C@@H](NC(=O)c3csc(-c4ccccc4)n3)CN2C1=O [Example 24],> 7.00
6,CC(C)(C)OC(=O)N[C@H]1CCCCC/C=C\[C@@H]2C[C@@]2(C(=O)NS(=O)(=O)C2CC2)NC(=O)[C@@H]2C[C@@H](NC(=O)c3csc(-c4ccccc4Cl)n3)CN2C1=O [Example 25],> 7.00
7,CC(C)(C)OC(=O)N[C@H]1CCCCC/C=C\[C@@H]2C[C@@]2(C(=O)NS(=O)(=O)C2CC2)NC(=O)[C@@H]2C[C@@H](NC(=O)c3csc(-c4ccc(Cl)cc4)n3)CN2C1=O [Example 26],> 7.00
8,CC(C)(C)OC(=O)N[C@H]1CCCCC/C=C\[C@@H]2C[C@@]2(C(=O)NS(=O)(=O)C2CC2)NC(=O)[C@@H]2C[C@@H](NC(=O)c3ccc4ccccc4c3)CN2C1=O [Example 27],> 7.00
9,CC(C)(C)OC(=O)N[C@H]1CCCCC/C=C\[C@@H]2C[C@@]2(C(=O)NS(=O)(=O)C2CC2)NC(=O)[C@@H]2C[C@@H](NC(=O)c3ccc4ncccc4c3)CN2C1=O [Example 28],> 7.00
10,CC(C)(C)OC(=O)N[C@H]1CCCCC/C=C\[C@@H]2C[C@@]2(C(=O)NS(=O)(=O)C2CC2)NC(=O)[C@@H]2C[C@@H](NC(=O)c3cnc4ccccc4c3)CN2C1=O [Example 29],> 7.00
11,CC(C)(C)OC(=O)N[C@H]1CCCCC/C=C\[C@@H]2C[C@@]2(C(=O)NS(=O)(=O)C2CC2)NC(=O)[C@@H]2C[C@@H](NC(=O)c3cnc4ccccc4n3)CN2C1=O [Example 30],> 7.00
12,CC(C)(C)OC(=O)N[C@H]1CCCCC/C=C\[C@@H]2C[C@@]2(C(=O)NS(=O)(=O)C2CC2)NC(=O)[C@@H]2C[C@@H](NC(=O)c3cc4cc(F)ccc4[nH]3)CN2C1=O [Example 34],> 7.00
13,CC(C)(C)OC(=O)N[C@H]1CCCCC/C=C\[C@@H]2C[C@@]2(C(=O)NS(=O)(=O)C2CC2)NC(=O)[C@@H]2C[C@@H](NC(=O)c3cc4cc(OC(F)(F)F)ccc4[nH]3)CN2C1=O [Example 36],> 7.00
14,CC(C)(C)OC(=O)N[C@H]1CCCCC/C=C\[C@@H]2C[C@@]2(C(=O)NS(=O)(=O)C2CC2)NC(=O)[C@@H]2C[C@@H](NC(=O)c3ccc4cc[nH]c4c3)CN2C1=O [Example 38],> 7.00
15,COc1cccc2cc(C(=O)N[C@@H]3C[C@H]4C(=O)N[C@]5(C(=O)NS(=O)(=O)C6CC6)C[C@H]5/C=C\CCCCC[C@H](NC(=O)OC(C)(C)C)C(=O)N4C3)oc12 [Example 42],> 7.00
16,CC(C)(C)OC(=O)N[C@H]1CCCCC/C=C\[C@@H]2C[C@@]2(C(=O)NS(=O)(=O)C2CC2)NC(=O)[C@@H]2C[C@@H](NC(=O)c3cc4ccccc4s3)CN2C1=O [Example 43],> 7.00
17,CC(C)(C)OC(=O)N[C@H]1CCCCC/C=C\[C@@H]2C[C@@]2(C(=O)NS(=O)(=O)C2CC2)NC(=O)[C@@H]2C[C@@H](NC(=O)c3sc4cc(F)ccc4c3Cl)CN2C1=O [Example 44],> 7.00
18,CC(C)(C)OC(=O)N[C@H]1CCCCC/C=C\[C@@H]2C[C@@]2(C(=O)NS(=O)(=O)C2CC2)NC(=O)[C@@H]2C[C@@H](NC(=O)c3sc4cccc(Cl)c4c3Cl)CN2C1=O [Example 45],> 7.00
19,CC(C)(C)OC(=O)N[C@H]1CCCCC/C=C\[C@@H]2C[C@@]2(C(=O)NS(=O)(=O)C2CC2)NC(=O)[C@@H]2C[C@@H](NC(=O)c3nc4ccccc4[nH]3)CN2C1=O [Example 47],> 7.00
20,CC(C)(C)NC(=O)N[C@H]1CCCCC/C=C\[C@@H]2C[C@@]2(C(=O)NS(=O)(=O)C2CC2)NC(=O)[C@@H]2C[C@@H](NC(=O)c3sc4ccccc4c3Cl)CN2C1=O [Example 49],> 7.00
21,CC(C)(C)CC(=O)N[C@H]1CCCCC/C=C\[C@@H]2C[C@@]2(C(=O)NS(=O)(=O)C2CC2)NC(=O)[C@@H]2C[C@@H](NC(=O)c3sc4ccccc4c3Cl)CN2C1=O [Example 51],> 7.00
22,CC(CC(=O)N[C@H]1CCCCC/C=C\[C@@H]2C[C@@]2(C(=O)NS(=O)(=O)C2CC2)NC(=O)[C@@H]2C[C@@H](NC(=O)c3sc4ccccc4c3Cl)CN2C1=O)C(F)(F)F (stereo partly drawn) [Example 53],> 7.00

# Next, values leading:
row,pIC50,SMILES
1,> 7.00,CC(C)(C)OC(=O)N[C@H]1CCCCC/C=C\[C@@H]2C[C@@]2(C(=O)NS(=O)(=O)C2CC2)NC(=O)[C@@H]2C[C@@H](NC(=O)c3csc(-c4ccc(Cl)cc4)c3)CN2C1=O [Example 23]
2,> 7.00,CC(C)(C)OC(=O)N[C@H]1CCCCC/C=C\[C@@H]2C[C@@]2(C(=O)NS(=O)(=O)C2CC2)NC(=O)[C@@H]2C[C@@H](NC(=O)c3cc4ccccc4[nH]3)CN2C1=O [Example 31]
3,> 7.00,CC(C)(C)OC(=O)N[C@H]1CCCCC/C=C\[C@@H]2C[C@@]2(C(=O)NS(=O)(=O)C2CC2)NC(=O)[C@@H]2C[C@@H](NC(=O)c3cc4cc(Cl)ccc4[nH]3)CN2C1=O [Example 32]
4,> 7.00,COc1ccc2[nH]c(C(=O)N[C@@H]3C[C@H]4C(=O)N[C@]5(C(=O)NS(=O)(=O)C6CC6)C[C@H]5/C=C\CCCCC[C@H](NC(=O)OC(C)(C)C)C(=O)N4C3)cc2c1 [Example 33]
5,> 7.00,Cn1c(C(=O)N[C@@H]2C[C@H]3C(=O)N[C@]4(C(=O)NS(=O)(=O)C5CC5)C[C@H]4/C=C\CCCCC[C@H](NC(=O)OC(C)(C)C)C(=O)N3C2)cc2ccccc21 [Example 35]
6,> 7.00,COc1cc2cc(C(=O)N[C@@H]3C[C@H]4C(=O)N[C@]5(C(=O)NS(=O)(=O)C6CC6)C[C@H]5/C=C\CCCCC[C@H](NC(=O)OC(C)(C)C)C(=O)N4C3)[nH]c2cc1OC [Example 37]
7,> 7.00,CC(C)(C)OC(=O)N[C@H]1CCCCC/C=C\[C@@H]2C[C@@]2(C(=O)NS(=O)(=O)C2CC2)NC(=O)[C@@H]2C[C@@H](NC(=O)c3cc4ccccc4o3)CN2C1=O [Example 39]
8,> 7.00,CC(C)(C)OC(=O)N[C@H]1CCCCC/C=C\[C@@H]2C[C@@]2(C(=O)NS(=O)(=O)C2CC2)NC(=O)[C@@H]2C[C@@H](NC(=O)c3cc4cc(Cl)ccc4o3)CN2C1=O [Example 40]
9,> 7.00,COc1ccc2oc(C(=O)N[C@@H]3C[C@H]4C(=O)N[C@]5(C(=O)NS(=O)(=O)C6CC6)C[C@H]5/C=C\CCCCC[C@H](NC(=O)OC(C)(C)C)C(=O)N4C3)cc2c1 [Example 41]
10,> 7.00,O=C(CCC(F)(F)F)N[C@H]1CCCCC/C=C\[C@@H]2C[C@@]2(C(=O)NS(=O)(=O)C2CC2)NC(=O)[C@@H]2C[C@@H](NC(=O)c3sc4ccccc4c3Cl)CN2C1=O [Example 50]
11,> 7.00,O=C(N[C@H]1CCCCC/C=C\[C@@H]2C[C@@]2(C(=O)NS(=O)(=O)C2CC2)NC(=O)[C@@H]2C[C@@H](NC(=O)c3sc4ccccc4c3Cl)CN2C1=O)OCC1CC1 [Example 52]
